Measurements published in PMC8214221, “Sequence determinants in the cathelicidin LL-37 that promote inflammation via presentation of RNA to scavenger receptors” (The Journal of Biological Chemistry, 2021).
Residues, ends and D or L forms follow the SMILES beside them.

tested on: normal human epidermal keratinocytes (NHEKs); assay: LDH release cytotoxicity assay in keratinocytes; format: cell-based; settings: minimal concentration giving 50% LDH release by NHEKs
Text: Since LL-34 was the minimal truncation mutant of LL-37 that retained both antimicrobial and immune modulatory activity, we prepared a series of synthetic peptides with sequential substitutions of alanine at each amino acid position of the LL-34 parent peptide (Table 1). We compared the minimum inhibitory concentration (MIC) for the LL-34 parent peptide and the alanine mutants (LL-34 peptides—L1A and R34A) against methicillin-resistant Staphylococcus aureus strain USA300 (Fig. 1A). LL-34 peptides were incubated at concentrations of 0 to 100 μM with bacteria. The minimal concentration at which no growth was observed was noted after 18 h of incubation. […] Because of these changes in the MIC against S. aureus between the mutants, we investigated the effective toxicity profile of the peptides in normal human epidermal keratinocytes (NHEKs) by lactate dehydrogenase (LDH) release assay (Table 1). […] Most other peptides were cytotoxic at a minimal concentration of 10 μM, whereas LL-34—K15A was toxic at a concentration of 2.5 μM.
LDH cytotoxicity assay was performed according to manufacturer's instructions (Thermo Fisher Scientific). Culture supernatants from keratinocytes were used fresh for LDH assay after experimental treatments.

Compound | Minimal cytotoxic concentration in NHEK (LD50) [µM]
CC[C@H](C)[C@H](NC(=O)[C@H](CCCCN)NC(=O)[C@H](CCC(=O)O)NC(=O)[C@H](CCCCN)NC(=O)[C@H](CO)NC(=O)[C@H](CCCCN)NC(=O)[C@H](CCCNC(=N)N)NC(=O)[C@H](Cc1ccccc1)NC(=O)[C@H](Cc1ccccc1)NC(=O)[C@H](CC(=O)O)NC(=O)CNC(=O)[C@H](CC(C)C)NC(=O)[C@@H](N)CC(C)C)C(=O)NCC(=O)N[C@@H](CCCCN)C(=O)N[C@@H](CCC(=O)O)C(=O)N[C@@H](Cc1ccccc1)C(=O)N[C@@H](C)C(=O)N[C@@H](CCCNC(=N)N)C(=O)N[C@H](C(=O)N[C@H](C(=O)N[C@@H](CCC(N)=O)C(=O)N[C@@H](CCCNC(=N)N)C(=O)N[C@H](C(=O)N[C@@H](CCCCN)C(=O)N[C@@H](CC(=O)O)C(=O)N[C@@H](Cc1ccccc1)C(=O)N[C@@H](CC(C)C)C(=O)N[C@@H](CCCNC(=N)N)C(=O)N[C@@H](CC(N)=O)C(=O)N[C@@H](CC(C)C)C(=O)N[C@H](C(=O)N1CCC[C@H]1C(=O)N[C@@H](CCCNC(=N)N)C(=O)O)C(C)C)[C@@H](C)CC)C(C)C)[C@@H](C)CC [LL-34—K18A] (H-LLGDFFRKSKEKIGKEFARIVQRIKDFLRNLVPR-OH; N-terminus and C-terminus assumed) | 10
CC[C@H](C)[C@H](NC(=O)[C@H](CCCCN)NC(=O)[C@H](CCC(=O)O)NC(=O)[C@H](CCCCN)NC(=O)[C@H](CO)NC(=O)[C@H](CCCCN)NC(=O)[C@H](CCCNC(=N)N)NC(=O)[C@H](Cc1ccccc1)NC(=O)[C@H](Cc1ccccc1)NC(=O)[C@H](CC(=O)O)NC(=O)[C@H](C)NC(=O)[C@H](CC(C)C)NC(=O)[C@@H](N)CC(C)C)C(=O)NCC(=O)N[C@@H](CCCCN)C(=O)N[C@@H](CCC(=O)O)C(=O)N[C@@H](Cc1ccccc1)C(=O)N[C@@H](CCCCN)C(=O)N[C@@H](CCCNC(=N)N)C(=O)N[C@H](C(=O)N[C@H](C(=O)N[C@@H](CCC(N)=O)C(=O)N[C@@H](CCCNC(=N)N)C(=O)N[C@H](C(=O)N[C@@H](CCCCN)C(=O)N[C@@H](CC(=O)O)C(=O)N[C@@H](Cc1ccccc1)C(=O)N[C@@H](CC(C)C)C(=O)N[C@@H](CCCNC(=N)N)C(=O)N[C@@H](CC(N)=O)C(=O)N[C@@H](CC(C)C)C(=O)N[C@H](C(=O)N1CCC[C@H]1C(=O)N[C@@H](CCCNC(=N)N)C(=O)O)C(C)C)[C@@H](C)CC)C(C)C)[C@@H](C)CC [LL-34—G3A] (H-LLADFFRKSKEKIGKEFKRIVQRIKDFLRNLVPR-OH; N-terminus and C-terminus assumed) | 20
CC[C@H](C)[C@H](NC(=O)[C@H](CCCCN)NC(=O)[C@H](CCC(=O)O)NC(=O)[C@H](CCCCN)NC(=O)[C@H](CO)NC(=O)[C@H](CCCCN)NC(=O)[C@H](CCCNC(=N)N)NC(=O)[C@H](Cc1ccccc1)NC(=O)[C@H](Cc1ccccc1)NC(=O)[C@H](CC(=O)O)NC(=O)CNC(=O)[C@H](CC(C)C)NC(=O)[C@@H](N)CC(C)C)C(=O)NCC(=O)N[C@@H](CCCCN)C(=O)N[C@@H](CCC(=O)O)C(=O)N[C@@H](Cc1ccccc1)C(=O)N[C@@H](CCCCN)C(=O)N[C@@H](CCCNC(=N)N)C(=O)N[C@H](C(=O)N[C@H](C(=O)N[C@@H](CCC(N)=O)C(=O)N[C@@H](CCCNC(=N)N)C(=O)N[C@H](C(=O)N[C@@H](CCCCN)C(=O)N[C@@H](CC(=O)O)C(=O)N[C@@H](Cc1ccccc1)C(=O)N[C@@H](CC(C)C)C(=O)N[C@@H](C)C(=O)N[C@@H](CC(N)=O)C(=O)N[C@@H](CC(C)C)C(=O)N[C@H](C(=O)N1CCC[C@H]1C(=O)N[C@@H](CCCNC(=N)N)C(=O)O)C(C)C)[C@@H](C)CC)C(C)C)[C@@H](C)CC [LL-34—R29A] (H-LLGDFFRKSKEKIGKEFKRIVQRIKDFLANLVPR-OH; N-terminus and C-terminus assumed) | 5
CC[C@H](C)[C@H](NC(=O)[C@H](CCCCN)NC(=O)[C@H](CCC(=O)O)NC(=O)[C@H](CCCCN)NC(=O)[C@H](CO)NC(=O)[C@H](CCCCN)NC(=O)[C@H](CCCNC(=N)N)NC(=O)[C@H](Cc1ccccc1)NC(=O)[C@H](Cc1ccccc1)NC(=O)[C@H](CC(=O)O)NC(=O)CNC(=O)[C@H](CC(C)C)NC(=O)[C@@H](N)CC(C)C)C(=O)NCC(=O)N[C@@H](CCCCN)C(=O)N[C@@H](CCC(=O)O)C(=O)N[C@@H](Cc1ccccc1)C(=O)N[C@@H](CCCCN)C(=O)N[C@@H](CCCNC(=N)N)C(=O)N[C@H](C(=O)N[C@H](C(=O)N[C@@H](CCC(N)=O)C(=O)N[C@@H](CCCNC(=N)N)C(=O)N[C@H](C(=O)N[C@@H](CCCCN)C(=O)N[C@@H](CC(=O)O)C(=O)N[C@@H](Cc1ccccc1)C(=O)N[C@@H](CC(C)C)C(=O)N[C@@H](CCCNC(=N)N)C(=O)N[C@@H](CC(N)=O)C(=O)N[C@@H](CC(C)C)C(=O)N[C@H](C(=O)N[C@@H](C)C(=O)N[C@@H](CCCNC(=N)N)C(=O)O)C(C)C)[C@@H](C)CC)C(C)C)[C@@H](C)CC [LL-34—P33A] (H-LLGDFFRKSKEKIGKEFKRIVQRIKDFLRNLVAR-OH; N-terminus and C-terminus assumed) | 10
CC[C@H](C)[C@H](NC(=O)[C@H](CCCCN)NC(=O)[C@H](CCC(=O)O)NC(=O)[C@H](CCCCN)NC(=O)[C@H](C)NC(=O)[C@H](CCCCN)NC(=O)[C@H](CCCNC(=N)N)NC(=O)[C@H](Cc1ccccc1)NC(=O)[C@H](Cc1ccccc1)NC(=O)[C@H](CC(=O)O)NC(=O)CNC(=O)[C@H](CC(C)C)NC(=O)[C@@H](N)CC(C)C)C(=O)NCC(=O)N[C@@H](CCCCN)C(=O)N[C@@H](CCC(=O)O)C(=O)N[C@@H](Cc1ccccc1)C(=O)N[C@@H](CCCCN)C(=O)N[C@@H](CCCNC(=N)N)C(=O)N[C@H](C(=O)N[C@H](C(=O)N[C@@H](CCC(N)=O)C(=O)N[C@@H](CCCNC(=N)N)C(=O)N[C@H](C(=O)N[C@@H](CCCCN)C(=O)N[C@@H](CC(=O)O)C(=O)N[C@@H](Cc1ccccc1)C(=O)N[C@@H](CC(C)C)C(=O)N[C@@H](CCCNC(=N)N)C(=O)N[C@@H](CC(N)=O)C(=O)N[C@@H](CC(C)C)C(=O)N[C@H](C(=O)N1CCC[C@H]1C(=O)N[C@@H](CCCNC(=N)N)C(=O)O)C(C)C)[C@@H](C)CC)C(C)C)[C@@H](C)CC [LL-34—S9A] (H-LLGDFFRKAKEKIGKEFKRIVQRIKDFLRNLVPR-OH; N-terminus and C-terminus assumed) | 5
CC[C@H](C)[C@H](NC(=O)[C@H](CCCCN)NC(=O)[C@H](CCC(=O)O)NC(=O)[C@H](CCCCN)NC(=O)[C@H](CO)NC(=O)[C@H](CCCCN)NC(=O)[C@H](CCCNC(=N)N)NC(=O)[C@H](Cc1ccccc1)NC(=O)[C@H](Cc1ccccc1)NC(=O)[C@H](CC(=O)O)NC(=O)CNC(=O)[C@H](CC(C)C)NC(=O)[C@@H](N)CC(C)C)C(=O)NCC(=O)N[C@@H](CCCCN)C(=O)N[C@@H](CCC(=O)O)C(=O)N[C@@H](Cc1ccccc1)C(=O)N[C@@H](CCCCN)C(=O)N[C@@H](CCCNC(=N)N)C(=O)N[C@H](C(=O)N[C@H](C(=O)N[C@@H](C)C(=O)N[C@@H](CCCNC(=N)N)C(=O)N[C@H](C(=O)N[C@@H](CCCCN)C(=O)N[C@@H](CC(=O)O)C(=O)N[C@@H](Cc1ccccc1)C(=O)N[C@@H](CC(C)C)C(=O)N[C@@H](CCCNC(=N)N)C(=O)N[C@@H](CC(N)=O)C(=O)N[C@@H](CC(C)C)C(=O)N[C@H](C(=O)N1CCC[C@H]1C(=O)N[C@@H](CCCNC(=N)N)C(=O)O)C(C)C)[C@@H](C)CC)C(C)C)[C@@H](C)CC [LL-34—Q22A] (H-LLGDFFRKSKEKIGKEFKRIVARIKDFLRNLVPR-OH; N-terminus and C-terminus assumed) | 5
CC[C@H](C)[C@H](NC(=O)[C@H](CCCCN)NC(=O)[C@H](CCC(=O)O)NC(=O)[C@H](CCCCN)NC(=O)[C@H](CO)NC(=O)[C@H](CCCCN)NC(=O)[C@H](CCCNC(=N)N)NC(=O)[C@H](Cc1ccccc1)NC(=O)[C@H](Cc1ccccc1)NC(=O)[C@H](CC(=O)O)NC(=O)CNC(=O)[C@H](CC(C)C)NC(=O)[C@@H](N)CC(C)C)C(=O)NCC(=O)N[C@@H](CCCCN)C(=O)N[C@@H](CCC(=O)O)C(=O)N[C@@H](Cc1ccccc1)C(=O)N[C@@H](CCCCN)C(=O)N[C@@H](CCCNC(=N)N)C(=O)N[C@H](C(=O)N[C@H](C(=O)N[C@@H](CCC(N)=O)C(=O)N[C@@H](CCCNC(=N)N)C(=O)N[C@H](C(=O)N[C@@H](CCCCN)C(=O)N[C@@H](CC(=O)O)C(=O)N[C@@H](Cc1ccccc1)C(=O)N[C@@H](CC(C)C)C(=O)N[C@@H](CCCNC(=N)N)C(=O)N[C@@H](C)C(=O)N[C@@H](CC(C)C)C(=O)N[C@H](C(=O)N1CCC[C@H]1C(=O)N[C@@H](CCCNC(=N)N)C(=O)O)C(C)C)[C@@H](C)CC)C(C)C)[C@@H](C)CC [LL-34—N30A] (H-LLGDFFRKSKEKIGKEFKRIVQRIKDFLRALVPR-OH; N-terminus and C-terminus assumed) | 10
